According to patent US20240166617A1, “PHOSPHOINOSITIDE 3 KINASE BETA INHIBITORS AND COMPOSITIONS AND METHODS THEREOF” (Geode Therapeutics Inc., priority 2021, published 2024):
Where two headings read alike, the source gives them in different places.

System: phosphorylation of AKT in HCC70 cells
Assay: Cellular assay: phosphorylation of AKT in HCC70 cells (western blotting)
Assay type: cell-based
Conditions: Homo sapiens, HCC70, 1 h, HCC70 cells, compound 500 nM, 60 min, inhibition of Akt activity from band intensities
Description: Cellular activity of PI3Kβ inhibitors was determined by quantifying the phosphorylation of AKT in HCC70 cells. AKT phosphorylated at Ser473 and Thr308 were measured using western blotting and specific primary antibodies from Cell Signaling (CST), Danvers, MA. On day 1, HCC70 cells (ATCC #CRL-2315) were seeded into Falcon 12-well cell Culture Plate (Corning #353043) at 100,000 cells per well, in 1 ml complete culture medium (RPMI-1640, GIBCO #11875093) containing 10% heat inactivated FBS (GIBCO #10438026), 1% Pen-Strep (GIBCO #15140122) and incubated at 37° AC, 5% CO2 overnight. On day 2, compound (500 nM) or DMSO (0.1%, Sigma Aldrich #8418) was added and cells were further incubated for 60 min at 37° AC, 5% CO2 in a total volume of 1 ml fresh medium.
At the end of the cell treatment period, media were removed by aspiration and adherent cells were lysed in 100 uL RIPA buffer (Sigma Aldrich #R0278). Equal volume (15 uL) of proteins was resolved by SDS-PAGE and transferred to PVDF (Millipore #IPFL00010) membrane for immunoblot analysis. Primary antibodies to the following proteins were used for immunoblotting: phosphor-AKT (Ser473) (CST #4060), phosphor-AKT (Thr308) (CST #2965), total AKT (CST #9272). Secondary goat anti-rabbit IgG fluorophore conjugated antibody (Invitrogen #A21109) was used to visualize the indicated proteins on an Odyssey CLx imaging system (Li-Cor). Quantification of band intensities was performed using Odyssey 3.0 software. Inhibition of Akt activity was calculated by band intensities using the formula: […]
Index was evaluated by % of AI. Data represent Index+(20˜60%), ++(60%˜80%), +++(80%˜90%), and ++++>90%.

[1] = read-out: Index of AI (HCC70) p-AKT Thr 308
[2] = read-out: Index of AI (HCC70) p-AKT ser 473

Row | Structure (SMILES) | inhibition at 0.5 µM [1] | inhibition at 0.5 µM [2]
1 | CC(Nc1cc(F)cc(F)c1)c1cc(NC2=NC(C)(C)CO2)cn2c(=O)cc(N3CCOCC3)nc12 (stereo not drawn) [Compound 47, 9-(1-((3,5-difluorophenyl)amino)ethyl)-7-((4,4-dimethyl-4,5-dihydrooxazol-2-yl)amino)-2-morpholino-4H-pyrido[1,2-a]pyrimidin-4-one] | > 90% | > 90%
2 | Cc1cc(CN2CCc3c(F)cccc32)c2nc(N3CCOCC3)cc(=O)n2c1 [Compound 52, 9-[(4-fluoroindolin-1-yl)methyl]-7-methyl-2-morpholino-pyrido[1,2-a]pyrimidin-4-one] | 60 to 80% | 60 to 80%
3 | Cc1cc(CN2c3cccc(F)c3CC2C)c2nc(N3CCOCC3)cc(=O)n2c1 (stereo not drawn) [Compound 53, 9-((4-fluoro-2-methylindolin-1-yl)methyl)-7-methyl-2-morpholino-4H-pyrido[1,2-a]pyrimidin-4-one] | 60 to 80% | 60 to 80%
4 | Cc1cc(CN2CCc3c(F)cc(F)cc32)c2nc(N3CCOCC3)cc(=O)n2c1 [Compound 54, 9-((4,6-difluoroindolin-1-yl)methyl)-7-methyl-2-morpholino-4H-pyrido[1,2-a]pyrimidin-4-one] | 20 to 60% | 20 to 60%
5 | Cc1cc(CN2c3cc(F)cc(F)c3CC2C)c2nc(N3CCOCC3)cc(=O)n2c1 (stereo not drawn) [Compound 55, 9-((4,6-difluoro-2-methylindolin-1-yl)methyl)-7-methyl-2-morpholino-4H-pyrido[1,2-a]pyrimidin-4-one] | 20 to 60% | 20 to 60%
6 | Cc1cc(CN2CCc3cc(F)ccc32)c2nc(N3CCOCC3)cc(=O)n2c1 [Compound 56, 9-((5-fluoroindolin-1-yl)methyl)-7-methyl-2-morpholino-4H-pyrido[1,2-a]pyrimidin-4-one] | 60 to 80% | 60 to 80%
7 | Cc1cc(CN2c3ccccc3CC2C)c2nc(N3CCOCC3)cc(=O)n2c1 (stereo not drawn) [Compound 57, 7-methyl-9-((2-methylindolin-1-yl)methyl)-2-morpholino-4H-pyrido[1,2-a]pyrimidin-4-one] | 60 to 80% | 60 to 80%
8 | CC(Nc1cc(F)cc(F)c1)c1cc(Cc2nnc[nH]2)cc2c(=O)cc(N3CCOCC3)oc12 (stereo not drawn) [Compound 60, 6-((4H-1,2,4-triazol-3-yl)methyl)-8-(1-((3,5-difluorophenyl)amino)ethyl)-2-morpholino-4H-chromen-4-one] | 80 to 90% | 80 to 90%
9 | CC(Nc1cc(F)cc(F)c1)c1cc(-c2c[nH][nH]c2=O)cc2c(=O)cc(N3CCOCC3)oc12 (stereo not drawn) [Compound 61, 4-(8-(1-((3,5-difluorophenyl)amino)ethyl)-2-morpholino-4-oxo-4H-chromen-6-yl)-1H-pyrazol-3(2H)-one] | 20 to 60% | 20 to 60%
10 | CN(C)C(=O)c1cc(CN2CCc3c(F)ccc(Cl)c32)c2oc(N3CCOCC3)cc(=O)c2c1 [Compound 62, 8-((7-chloro-4-fluoroindolin-1-yl)methyl)-N,N-dimethyl-2-morpholino-4-oxo-4H-chromene-6-carboxamide] | 80 to 90% | 80 to 90%
11 | CC1Cc2c(F)cc(F)cc2N1Cc1cc(C(=O)N(C)C)cc2c(=O)cc(N3CCOCC3)oc12 (stereo not drawn) [Compound 63, 8-((4,6-difluoro-2-methylindolin-1-yl)methyl)-N,N-dimethyl-2-morpholino-4-oxo-4H-chromene-6-carboxamide] | > 90% | > 90%
12 | CN(C)C(=O)c1cc(CN2c3cc(F)cc(F)c3CC2(C)C)c2oc(N3CCOCC3)cc(=O)c2c1 [Compound 66, 8-((4,6-difluoro-2,2-dimethylindolin-1-yl)methyl)-N,N-dimethyl-2-morpholino-4-oxo-4H-chromene-6-carboxamide] | 80 to 90% | 80 to 90%
13 | CN(C)C(=O)c1cc(CN2CCc3ccccc32)c2oc(N3CCOCC3)cc(=O)c2c1 [Compound 67, 8-(indolin-1-ylmethyl)-N,N-dimethyl-2-morpholino-4-oxo-4H-chromene-6-carboxamide] | 60 to 80% | 60 to 80%
14 | CN(C)C(=O)c1cc(CN2CCc3c(F)cccc32)c2oc(N3CCOCC3)cc(=O)c2c1 [Compound 68, 8-((4-fluoroindolin-1-yl)methyl)-N,N-dimethyl-2-morpholino-4-oxo-4H-chromene-6-carboxamide] | > 90% | > 90%
15 | CN(C)C(=O)c1cc(CN2CCc3ccc(F)cc32)c2oc(N3CCOCC3)cc(=O)c2c1 [Compound 70, 8-((6-fluoroindolin-1-yl)methyl)-N,N-dimethyl-2-morpholino-4-oxo-4H-chromene-6-carboxamide] | 80 to 90% | 80 to 90%
16 | CN(C)C(=O)c1cc(CN2CCc3c(Cl)cccc32)c2oc(N3CCOCC3)cc(=O)c2c1 [Compound 71, 8-((4-chloroindolin-1-yl)methyl)-N,N-dimethyl-2-morpholino-4-oxo-4H-chromene-6-carboxamide] | > 90% | > 90%
17 | COc1cccc2c1N(Cc1cc(C(=O)N(C)C)cc3c(=O)cc(N4CCOCC4)oc13)CC2 [Compound 72, 8-((7-methoxyindolin-1-yl)methyl)-N,N-dimethyl-2-morpholino-4-oxo-4H-chromene-6-carboxamide] | 20 to 60% | 20 to 60%
18 | CCN(CC)C(=O)c1cc(CN2CCc3c(F)cc(F)cc32)c2oc(N3CCOCC3)cc(=O)c2c1 [Compound 78, 8-((4,6-difluoroindolin-1-yl)methyl)-N,N-diethyl-2-morpholino-4-oxo-4H-chromene-6-carboxamide] | 80 to 90% | 80 to 90%
19 | CCN(C)C(=O)c1cc(CN2CCc3c(F)cc(F)cc32)c2oc(N3CCOCC3)cc(=O)c2c1 [Compound 79, 8-((4,6-difluoroindolin-1-yl)methyl)-N-ethyl-N-methyl-2-morpholino-4-oxo-4H-chromene-6-carboxamide] | 80 to 90% | 80 to 90%
20 | CCNC(=O)c1cc(CN2CCc3c(F)cc(F)cc32)c2oc(N3CCOCC3)cc(=O)c2c1 [Compound 80, 8-((4,6-difluoroindolin-1-yl)methyl)-N-ethyl-2-morpholino-4-oxo-4H-chromene-6-carboxamide] | 60 to 80% | 60 to 80%
21 | CC(C)NC(=O)c1cc(CN2CCc3c(F)cc(F)cc32)c2oc(N3CCOCC3)cc(=O)c2c1 [Compound 81, 8-((4,6-difluoroindolin-1-yl)methyl)-N-isopropyl-2-morpholino-4-oxo-4H-chromene-6-carboxamide] | 60 to 80% | 60 to 80%
22 | CN1CCC(NC(=O)c2cc(CN3CCc4c(F)cc(F)cc43)c3oc(N4CCOCC4)cc(=O)c3c2)CC1 [Compound 82, 8-((4,6-difluoroindolin-1-yl)methyl)-N-(1-methylpiperidin-4-yl)-2-morpholino-4-oxo-4H-chromene-6-carboxamide] | 80 to 90% | 80 to 90%
23 | O=C(NC1CCOCC1)c1cc(CN2CCc3c(F)cc(F)cc32)c2oc(N3CCOCC3)cc(=O)c2c1 [Compound 83, 8-((4,6-difluoroindolin-1-yl)methyl)-2-morpholino-4-oxo-N-(tetrahydro-2H-pyran-4-yl)-4H-chromene-6-carboxamide] | 60 to 80% | 60 to 80%
24 | CC(C)(O)CNC(=O)c1cc(CN2CCc3c(F)cc(F)cc32)c2oc(N3CCOCC3)cc(=O)c2c1 [Compound 84, 8-((4,6-difluoroindolin-1-yl)methyl)-N-(2-hydroxy-2-methylpropyl)-2-morpholino-4-oxo-4H-chromene-6-carboxamide] | 80 to 90% | 80 to 90%
25 | CC(C)CNC(=O)c1cc(CN2CCc3c(F)cc(F)cc32)c2oc(N3CCOCC3)cc(=O)c2c1 [Compound 85, 8-((4,6-difluoroindolin-1-yl)methyl)-N-isobutyl-2-morpholino-4-oxo-4H-chromene-6-carboxamide] | 60 to 80% | 60 to 80%
26 | CNC(=O)c1cc(CN2CCc3c(F)cc(F)cc32)c2oc(N3CCOCC3)cc(=O)c2c1 [Compound 86, 8-((4,6-difluoroindolin-1-yl)methyl)-N-methyl-2-morpholino-4-oxo-4H-chromene-6-carboxamide] | > 90% | > 90%
27 | CC1(C)CN(C(=O)c2cc(CN3CCc4c(F)cc(F)cc43)c3oc(N4CCOCC4)cc(=O)c3c2)C1 [Compound 87, 8-((4,6-difluoroindolin-1-yl)methyl)-6-(3,3-dimethylazetidine-1-carbonyl)-2-morpholino-4H-chromen-4-one] | 60 to 80% | 60 to 80%
